Data taken from US10494366B2, “Pesticidally active amide heterocyclic derivatives with sulphur containing substituents” (Syngenta Participations AG, priority 2014, dated 2019).

Experiments:
[1] = tested on: Diabrotica balteata (corn root worm); assay: Example B4: Diabrotica balteata, sprayed maize sprouts; type: in vivo; details: 96 h, application rate 200 ppm, L2 larvae, 4 days after infestation, read-out: effect in at least one of the two categories (mortality or growth inhibition)
Experimental: Maize sprouts, placed on an agar layer in 24-well microtiter plates were treated with aqueous test solutions prepared from 10,000 ppm DMSO stock solutions by spraying. After drying, the plates were infested with L2 larvae (6 to 10 per well). The samples were assessed for mortality and growth inhibition in comparison to untreated samples 4 days after infestation.

[2] = tested on: Myzus persicae (green peach aphid); assay: Example B5: Myzus persicae, sprayed sunflower leaf discs; type: in vivo; details: foliar, 144 h, application rate 200 ppm, aphid population of mixed ages, 6 days after infestation
Experimental: Sunflower leaf discs were placed on agar in a 24-well microtiter plate and sprayed with aqueous test solutions prepared from 10,000 ppm DMSO stock solutions. After drying, the leaf discs were infested with an aphid population of mixed ages. The samples were assessed for mortality 6 days after infestation.

[3] = tested on: Plutella xylostella (diamond back moth); assay: Example B3: Plutella xylostella, treated artificial diet; type: in vivo; details: 120 h, application rate 200 ppm, L2 larvae, 5 days after infestation, read-out: effect in at least one of the two categories (mortality or growth inhibition)
Experimental: 24-well microtiter plates with artificial diet were treated with aqueous test solutions prepared from 10,000 ppm DMSO stock solutions by pipetting. After drying, the plates were infested with L2 larvae (10 to 15 per well). The samples were assessed for mortality and growth inhibition in comparison to untreated samples 5 days after infestation.

[4] = tested on: Spodoptera littoralis (Egyptian cotton leaf worm); assay: Example B1: Spodoptera littoralis, sprayed cotton leaf discs; type: in vivo; details: foliar, 72 h, application rate 200 ppm, L1 larvae, 3 days after infestation, read-out: control in at least one of the three categories (mortality, anti-feedancy or growth inhibition)
Experimental: Cotton leaf discs were placed on agar in 24-well microtiter plates and sprayed with aqueous test solutions prepared from 10,000 ppm DMSO stock solutions. After drying the leaf discs were infested with five L1 larvae. The samples were assessed for mortality, anti-feedant effect, and growth inhibition in comparison to untreated samples 3 days after infestation. Control of Spodoptera littoralis by a test sample is when at least one of mortality, anti-feedant effect, and growth inhibition is higher than the untreated sample.

[5] = tested on: Euschistus heros (neotropical brown stink bug); assay: Example B6: Euschistus heros, sprayed soybean leaf; type: in vivo; details: 120 h, application rate 200 ppm, N-2 nymphs, 5 days after infestation
Text: Soybean leaf on agar in 24-well microtiter plates were sprayed with aqueous test solutions prepared from 10,000 ppm DMSO stock solutions. After drying the leaf were infested with N-2 nymphs.

[6] = tested on: Spodoptera littoralis (Egyptian cotton leaf worm); assay: Example B2: Spodoptera littoralis, systemic test via lettuce roots in agar; type: in vivo; details: 144 h, application rate 12.5 ppm, Spodoptera eggs, 6 days after infestation, read-out: control in at least one of the three categories (mortality, anti-feedancy or growth inhibition)
Text: Test compounds were applied by pipette from 10,000 ppm DMSO stock solutions into 24-well plates and mixed with agar. Lettuce seeds were placed on the agar and the multi well plate was closed by another plate which contains also agar. After 7 days the roots have absorbed the compound and the lettuce has grown into the lid plate. The lettuce leafs were now cut off into the lid plate. Spodoptera eggs were pipetted through a plastic stencil on a humid gel blotting paper and the plate closed with it. The samples were assessed for mortality, anti-feedant effect and growth inhibition in comparison to untreated samples 6 days after infestation.
The following compounds gave an effect of at least 80% control in at least one of the three categories (mortality, anti-feedancy or growth inhibition) at an application rate of 12.5 ppm: P2, P3, P8, P9, P11 and P17, P19, P20, P22, P23, P25, P26, P28, P30, P31, P32, P33, P40, P42, P43, P44, P45, P46, P47, P48, P49, P50, P51, P52, P53, P54, P60 and P61.

[7] = tested on: Tetranychus urticae (two-spotted spider mite); assay: Example B8: Tetranychus urticae, sprayed bean leaf discs; type: in vivo; details: foliar, 192 h, application rate 200 ppm, mixed population (mobile stages), 8 days after infestation
Text: Bean leaf discs on agar in 24-well microtiter plates were sprayed with aqueous test solutions prepared from 10,000 ppm DMSO stock solutions. After drying the leaf discs were infested with a mite population of mixed ages.

CCS(=O)(=O)c1cc(-c2ccc(C(F)(F)F)cc2)cnc1C(=O)/N=c1\sc(C(F)(F)F)nn1C [Compound P5]
percent effect (mortality or growth inhibition) at 200 ppm [1]: ≥ 80%
mortality at 200 ppm [2]: ≥ 80%
percent effect (mortality or growth inhibition) at 200 ppm [3]: ≥ 80%
percent control (mortality, anti-feedant effect or growth inhibition) at 200 ppm [4]: ≥ 80%
mortality at 200 ppm [5]: ≥ 80%

CCSc1cc(-c2ccc(C(F)(F)F)cc2)cnc1C(=O)/N=c1\sc(C(F)(F)C(F)(F)F)nn1C
melting point: 173 to 175 °C

CCS(=O)(=O)c1cc(-c2ncc(Cl)cc2Cl)cnc1C(=O)/N=c1\sc(C(F)(F)F)nn1C [Compound P46]
percent effect (mortality or growth inhibition) at 200 ppm [1]: ≥ 80%
mortality at 200 ppm [2]: ≥ 80%
percent effect (mortality or growth inhibition) at 200 ppm [3]: ≥ 80%
percent control (mortality, anti-feedant effect or growth inhibition) at 200 ppm [4]: ≥ 80%
percent control (mortality, anti-feedant effect or growth inhibition) at 12.5 ppm [6]: ≥ 80%
mortality at 200 ppm [5]: ≥ 80%

CCS(=O)(=O)c1cc(-c2ccc(C(F)(F)F)cc2)cnc1C(=O)N=c1ccc(SC(F)(F)F)cn1C [Compound P16]
percent effect (mortality or growth inhibition) at 200 ppm [1]: ≥ 80%
mortality at 200 ppm [2]: ≥ 80%
percent effect (mortality or growth inhibition) at 200 ppm [3]: ≥ 80%
percent control (mortality, anti-feedant effect or growth inhibition) at 200 ppm [4]: ≥ 80%
mortality at 200 ppm [5]: ≥ 80%

CCSc1cc(-c2ccc(Cl)cc2)cnc1C(=O)/N=c1\sc(C(F)(F)F)nn1C
melting point: 147 to 148 °C

CCS(=O)(=O)c1cc(-c2nccc(C(F)(F)F)n2)cnc1C(=O)/N=c1\sc(C(F)(F)F)nn1C [Compound P40]
percent effect (mortality or growth inhibition) at 200 ppm [1]: ≥ 80%
mortality at 200 ppm [2]: ≥ 80%
percent effect (mortality or growth inhibition) at 200 ppm [3]: ≥ 80%
percent control (mortality, anti-feedant effect or growth inhibition) at 200 ppm [4]: ≥ 80%
percent control (mortality, anti-feedant effect or growth inhibition) at 12.5 ppm [6]: ≥ 80%
mortality at 200 ppm [5]: ≥ 80%

CCS(=O)(=O)c1cc(-c2cccc3c2OC(F)(F)O3)cnc1C(=O)/N=c1\sc(C(F)(F)F)nn1C [Compound P29]
percent effect (mortality or growth inhibition) at 200 ppm [1]: ≥ 80%
mortality at 200 ppm [7]: ≥ 80%
percent effect (mortality or growth inhibition) at 200 ppm [3]: ≥ 80%
percent control (mortality, anti-feedant effect or growth inhibition) at 200 ppm [4]: ≥ 80%
mortality at 200 ppm [5]: ≥ 80%

CCS(=O)(=O)c1cc(C2CC2)cnc1C(=O)/N=c1\ccc(SC(F)(F)F)cn1C [Compound P18, (N)-5-cyclopropyl-3-ethylsulfonyl-N-[1-methyl-5-(trifluoromethylsulfanyl)-2-pyridylidene]pyridine-2-carboxamide]
percent effect (mortality or growth inhibition) at 200 ppm [1]: ≥ 80%
mortality at 200 ppm [2]: ≥ 80%
percent effect (mortality or growth inhibition) at 200 ppm [3]: ≥ 80%
percent control (mortality, anti-feedant effect or growth inhibition) at 200 ppm [4]: ≥ 80%
mortality at 200 ppm [5]: ≥ 80%

CCS(=O)(=O)c1cc(-c2nc(C(F)(F)F)cs2)cnc1C(=O)/N=c1\sc(C(F)(F)F)nn1C [Compound P60]
percent effect (mortality or growth inhibition) at 200 ppm [1]: ≥ 80%
mortality at 200 ppm [2]: ≥ 80%
percent effect (mortality or growth inhibition) at 200 ppm [3]: ≥ 80%
percent control (mortality, anti-feedant effect or growth inhibition) at 200 ppm [4]: ≥ 80%
percent control (mortality, anti-feedant effect or growth inhibition) at 12.5 ppm [6]: ≥ 80%

CCS(=O)(=O)c1cc(-c2cc(C(F)(F)F)ccn2)cnc1C(=O)/N=c1\sc(C(F)(F)F)nn1C [Compound P70]
percent effect (mortality or growth inhibition) at 200 ppm [1]: ≥ 80%
mortality at 200 ppm [7]: ≥ 80%
percent effect (mortality or growth inhibition) at 200 ppm [3]: ≥ 80%
percent control (mortality, anti-feedant effect or growth inhibition) at 200 ppm [4]: ≥ 80%

CCS(=O)(=O)c1cc(-c2ccc(C(F)(F)F)cc2)ccc1C(=O)/N=c1\sc(C(F)(F)F)nn1C
melting point: 140 to 142 °C

CCS(=O)(=O)c1cc(-c2ncc(F)cc2F)cnc1C(=O)/N=c1\sc(C(F)(F)F)nn1C [Compound P66]
percent effect (mortality or growth inhibition) at 200 ppm [1]: ≥ 80%
mortality at 200 ppm [2]: ≥ 80%
percent effect (mortality or growth inhibition) at 200 ppm [3]: ≥ 80%
percent control (mortality, anti-feedant effect or growth inhibition) at 200 ppm [4]: ≥ 80%
mortality at 200 ppm [5]: ≥ 80%

CCSc1cc(-n2ccc(C(F)(F)F)n2)cnc1C(=O)/N=c1\sc(C(F)(F)C(F)(F)F)nn1C
melting point: 219 to 221 °C

CCS(=O)(=O)c1cc(-c2cccc(Cl)c2)cnc1C(=O)/N=c1\sc(C(F)(F)F)nn1C
melting point: 184 to 186 °C

CCS(=O)(=O)c1cc(C2(C#N)CC2)cnc1C(=O)/N=c1\sc(C(F)(F)F)nn1C [Compound P19]
percent effect (mortality or growth inhibition) at 200 ppm [1]: ≥ 80%
mortality at 200 ppm [2]: ≥ 80%
percent effect (mortality or growth inhibition) at 200 ppm [3]: ≥ 80%
percent control (mortality, anti-feedant effect or growth inhibition) at 200 ppm [4]: ≥ 80%
percent control (mortality, anti-feedant effect or growth inhibition) at 12.5 ppm [6]: ≥ 80%
mortality at 200 ppm [5]: ≥ 80%

CCS(=O)(=O)c1cc(-c2cccc(Cl)n2)cnc1C(=O)/N=c1\sc(C(F)(F)F)nn1C [Compound P64, (N)-5-(6-chloro-2-pyridyl)-3-ethylsulfonyl-N-[3-methyl-5-(trifluoromethyl)-1,3,4-thiadiazol-2-ylidene]pyridine-2-carboxamide]
percent effect (mortality or growth inhibition) at 200 ppm [1]: ≥ 80%
mortality at 200 ppm [2]: ≥ 80%
percent effect (mortality or growth inhibition) at 200 ppm [3]: ≥ 80%
percent control (mortality, anti-feedant effect or growth inhibition) at 200 ppm [4]: ≥ 80%
mortality at 200 ppm [5]: ≥ 80%

CCS(=O)(=O)c1cc(-c2ccnc(F)c2)cnc1C(=O)/N=c1\sc(C(F)(F)F)nn1C [Compound P54]
percent effect (mortality or growth inhibition) at 200 ppm [1]: ≥ 80%
mortality at 200 ppm [2]: ≥ 80%
percent effect (mortality or growth inhibition) at 200 ppm [3]: ≥ 80%
percent control (mortality, anti-feedant effect or growth inhibition) at 200 ppm [4]: ≥ 80%
percent control (mortality, anti-feedant effect or growth inhibition) at 12.5 ppm [6]: ≥ 80%
mortality at 200 ppm [5]: ≥ 80%

CCS(=O)(=O)c1cc(-c2cncc(C(F)(F)F)c2)cnc1C(=O)/N=c1\sc(C(F)(F)F)nn1C [Compound P53]
percent effect (mortality or growth inhibition) at 200 ppm [1]: ≥ 80%
mortality at 200 ppm [2]: ≥ 80%
percent effect (mortality or growth inhibition) at 200 ppm [3]: ≥ 80%
percent control (mortality, anti-feedant effect or growth inhibition) at 200 ppm [4]: ≥ 80%
percent control (mortality, anti-feedant effect or growth inhibition) at 12.5 ppm [6]: ≥ 80%

CCS(=O)(=O)c1cc(-c2ccc(Cl)cc2)cnc1C(=O)/N=c1\sc(C(F)(F)F)nn1C [Compound P2, (N)-5-(4-chlorophenyl)-3-ethylsulfonyl-N-[3-methyl-5-(trifluoromethyl)-1,3,4-thiadiazol-2-ylidene]pyridine-2-carboxamide]
percent effect (mortality or growth inhibition) at 200 ppm [1]: ≥ 80%
mortality at 200 ppm [2]: ≥ 80%
percent effect (mortality or growth inhibition) at 200 ppm [3]: ≥ 80%
percent control (mortality, anti-feedant effect or growth inhibition) at 200 ppm [4]: ≥ 80%
percent control (mortality, anti-feedant effect or growth inhibition) at 12.5 ppm [6]: ≥ 80%
mortality at 200 ppm [5]: ≥ 80%

CCS(=O)(=O)c1cc(-c2ccccc2)cnc1C(=O)/N=c1\sc(C(F)(F)F)nn1C [Compound P6, (N)-3-ethylsulfonyl-N-[3-methyl-5-(trifluoromethyl)-1,3,4-thiadiazol-2-ylidene]-5-phenyl-pyridine-2-carboxamide]
percent effect (mortality or growth inhibition) at 200 ppm [1]: ≥ 80%
mortality at 200 ppm [2]: ≥ 80%
percent effect (mortality or growth inhibition) at 200 ppm [3]: ≥ 80%
percent control (mortality, anti-feedant effect or growth inhibition) at 200 ppm [4]: ≥ 80%
mortality at 200 ppm [5]: ≥ 80%

CCS(=O)(=O)c1cc(-c2ccccn2)cnc1C(=O)/N=c1\sc(C(F)(F)F)nn1C [Compound P51]
percent effect (mortality or growth inhibition) at 200 ppm [1]: ≥ 80%
mortality at 200 ppm [2]: ≥ 80%
percent effect (mortality or growth inhibition) at 200 ppm [3]: ≥ 80%
percent control (mortality, anti-feedant effect or growth inhibition) at 200 ppm [4]: ≥ 80%
percent control (mortality, anti-feedant effect or growth inhibition) at 12.5 ppm [6]: ≥ 80%
mortality at 200 ppm [5]: ≥ 80%

CCS(=O)(=O)c1cc(-c2ccc(Cl)cc2)cnc1C(=O)/N=c1\sc(C(F)(F)C(F)(F)F)nn1C [Compound P11]
percent effect (mortality or growth inhibition) at 200 ppm [1]: ≥ 80%
mortality at 200 ppm [2]: ≥ 80%
percent effect (mortality or growth inhibition) at 200 ppm [3]: ≥ 80%
percent control (mortality, anti-feedant effect or growth inhibition) at 200 ppm [4]: ≥ 80%
percent control (mortality, anti-feedant effect or growth inhibition) at 12.5 ppm [6]: ≥ 80%
mortality at 200 ppm [5]: ≥ 80%
